Data on seven compounds can be found in article PMC3602279 (Bioorganic & medicinal chemistry letters, 2013).

One test concerns the target human κ opioid receptor (Homo sapiens, UniProt P41145). The test can be described thus: [35S]GTPγS binding, stimulation and inhibition of agonist-stimulated binding. To be noted: for Functional description: Kappa Opioid Receptor; for Emax: read-out: Emax (% maximal stimulation). The class given is biochemical.
The target of a further test is human μ opioid receptor (Homo sapiens, UniProt P35372). The test is described as above. The class given is biochemical. The note with it: for Functional description / Imax (% maximal inhibition): Mu Opioid Receptor; for Imax (% maximal inhibition): inhibition of binding stimulated by 200 nM DAMGO; for Emax: read-out: Emax (% maximal stimulation).
human μ opioid receptor, sequence (P35372 whole entry): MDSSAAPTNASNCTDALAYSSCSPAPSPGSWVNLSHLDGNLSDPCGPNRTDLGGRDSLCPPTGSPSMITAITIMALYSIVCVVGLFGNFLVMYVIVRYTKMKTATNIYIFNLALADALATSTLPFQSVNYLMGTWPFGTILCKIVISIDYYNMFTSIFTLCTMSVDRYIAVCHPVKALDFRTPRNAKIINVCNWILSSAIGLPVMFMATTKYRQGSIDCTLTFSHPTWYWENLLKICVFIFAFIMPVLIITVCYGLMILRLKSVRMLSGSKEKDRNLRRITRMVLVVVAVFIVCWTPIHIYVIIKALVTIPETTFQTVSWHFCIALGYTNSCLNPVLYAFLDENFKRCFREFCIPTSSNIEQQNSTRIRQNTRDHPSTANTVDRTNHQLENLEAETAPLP

Entries after “also recorded” stand apart in the source; their conditions may differ.

human κ opioid receptor, sequence (P41145 whole entry): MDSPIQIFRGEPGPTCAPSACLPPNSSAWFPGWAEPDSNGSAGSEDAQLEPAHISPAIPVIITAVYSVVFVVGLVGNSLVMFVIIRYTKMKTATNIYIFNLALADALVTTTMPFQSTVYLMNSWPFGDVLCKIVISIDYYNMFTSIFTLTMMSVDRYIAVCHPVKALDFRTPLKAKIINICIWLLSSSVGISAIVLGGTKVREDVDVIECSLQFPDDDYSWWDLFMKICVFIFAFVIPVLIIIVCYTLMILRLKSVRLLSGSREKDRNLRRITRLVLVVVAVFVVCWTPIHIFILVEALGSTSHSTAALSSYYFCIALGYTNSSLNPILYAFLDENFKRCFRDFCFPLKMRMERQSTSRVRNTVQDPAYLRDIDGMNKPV

Turning to `C[C@H]1C2Cc3ccc(C(=O)NCCc4ccc(-c5cccnc5)cc4)cc3[C@@]1(C)CCN2CC1CC1` [Compound 5], at human κ opioid receptor, the Functional description entry is “agonist” and the Emax (commonly the greatest response seen or fitted, relative to the assay's reference) was found to be 52 ± 0.55%. Besides, at human μ opioid receptor, the Functional description result is on record as “partial agonist”, the “Imax (% maximal inhibition)” value was 83 ± 2.9 % maximal inhibition and the Emax worked out at 28 ± 2.2%.
As to `C[C@H]1C2Cc3ccc(C(=O)NCCc4ccc(-c5ccccc5)nc4)cc3[C@@]1(C)CCN2CC1CC1` [Compound 7], on human κ opioid receptor, the Functional description result is given as “agonist” and the Emax came to 52 ± 4.8%. At human μ opioid receptor, the Functional description result is listed as “partial agonist”, the “Imax (% maximal inhibition)” value was found to be 87 ± 1.2 % maximal inhibition and the Emax amounted to 30 ± 2.3%.
Take `C[C@H]1C2Cc3ccc(C(=O)NCCc4ccc(-c5ccccn5)cc4)cc3[C@@]1(C)CCN2CC1CC1` [Compound 6]: at human κ opioid receptor, the Functional description result is reported as “agonist” and the Emax came to 50 ± 2.6%. For the same compound, at human μ opioid receptor, the Functional description result is given as “partial agonist”, the “Imax (% maximal inhibition)” value is 87 ± 3.1 % maximal inhibition and the maximal effect (Emax) amounted to 31 ± 1.8%.
For `CC1C2Cc3ccc(C(=O)NCCc4ccc(-c5ccccc5)cc4)cc3C1(C)CCN2CC1CC1` (racemic) [Compound 1, N-(2-[1,1′-biphenyl]-4-ylethyl)-3-(cyclopropylmethyl)-1,2,3,4,5,6-hexahydro-6,11-dimethyl-2,6-methano-3-benzazocine-8-carboxamide, reference compound], on human κ opioid receptor, the Functional description result is recorded as “agonist” and the Emax was 76 ± 6.7%.
For `C[C@H]1C2Cc3ccc(C(=O)NCCc4ccc(-c5ccncc5)cc4)cc3[C@@]1(C)CCN2CC1CC1` [Compound 4], on human κ opioid receptor, the Functional description entry is “agonist” and the Emax worked out at 64 ± 5.1%. Moreover, at human μ opioid receptor, the Functional description result was “partial agonist”, the “Imax (% maximal inhibition)” value is 79 ± 3.3 % maximal inhibition and the Emax came out at 33 ± 0.68%.
Turning to `C[C@H]1C2Cc3ccc(C(N)=O)cc3[C@@]1(C)CCN2CC1CC1` [Compound 2, 8-carboxamidocyclazocine, reference compound], at human κ opioid receptor, the Functional description entry is “agonist” and the Emax amounted to 87 ± 6.5%. Also, at human μ opioid receptor, the Functional description result is reported as “functional partial agonists; also recorded: partial agonist”, the “Imax (% maximal inhibition)” value was 76 ± 1.1 % maximal inhibition and the Emax amounted to 24 ± 1.9%.
Consider `C[C@H]1C2Cc3ccc(C(=O)NCCc4ccc(-c5ccccc5)cn4)cc3[C@@]1(C)CCN2CC1CC1` [Compound 8], for which, at human κ opioid receptor, the Functional description entry is “agonist” and the maximal effect (Emax) turned out to be 64 ± 2.4%. Also, at human μ opioid receptor, the Functional description result is given as “partial agonist”, the “Imax (% maximal inhibition)” value is recorded as 53 ± 5.4 % maximal inhibition and the maximal effect (Emax) worked out at 25 ± 1.1%.
